# Test results taken from ChEMBL document CHEMBL1201862, “PubChem BioAssay data set” (2004).
# Calls of active or inactive are those of the source.
# Assays:
# [1] = Luminescence Cell-Based Dose Response HTS to Identify Activators of Luciferase Translation or Activity in H4 […] Cells. [Related pubchem assays: 1829 (Project Summary), 1814 (Primary HTS)]; format: functional
# H4 = assay: Luminescence Cell-Based Dose Response HTS to Identify Activators of 5'UTR Stem-Loop Driven Prion Protein mRNA Translation in H4 Neuroglioblastoma Cells. [Related pubchem assays: 1829 (Project Summary), 1814 (Primary HTS)]; format: functional; conditions: Homo sapiens
# [2] = target: DNA damage-inducible transcript 3 protein (Mus musculus, UniProt P35639); format: functional, Cricetulus griseus
# X-box-binding protein 1 = target: T1, X-box-binding protein 1 (Homo sapiens, UniProt P17861); format: functional, Cricetulus griseus;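 note: confirmatory dose-response counter-screen serving a CHOP assay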
# T1 sequence (P17861 whole entry): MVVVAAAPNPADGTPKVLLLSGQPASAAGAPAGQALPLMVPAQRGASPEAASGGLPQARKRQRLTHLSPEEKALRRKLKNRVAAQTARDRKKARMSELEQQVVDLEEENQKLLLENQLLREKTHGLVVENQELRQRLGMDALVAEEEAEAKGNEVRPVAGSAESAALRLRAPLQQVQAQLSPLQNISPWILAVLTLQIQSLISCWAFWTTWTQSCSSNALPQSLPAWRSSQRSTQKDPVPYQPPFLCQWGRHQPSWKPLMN
# HeLa = assay: ATP-based viability loss in HeLa cells – cell-based, CellTiter-Glo luminescence, cherry-pick samples, cytotoxicity control for MITF activator project, dose response (AID 540259); format: functional; conditions: Homo sapiens
# [3] = target: T2, Microphthalmia-associated transcription factor (Homo sapiens, UniProt O75030); assay: reducers of TRPM1 reporter luminescence, concentration series – cell-based, SK-MEL-5, cherry-picked, set 3, MITF inhibitor project, dose response (AID 493073); format: functional;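 note: SK-MEL-5 melanoma cells with luciferase driven by the MITF target TRPM1 promoter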
# T2 sequence (O75030 whole entry): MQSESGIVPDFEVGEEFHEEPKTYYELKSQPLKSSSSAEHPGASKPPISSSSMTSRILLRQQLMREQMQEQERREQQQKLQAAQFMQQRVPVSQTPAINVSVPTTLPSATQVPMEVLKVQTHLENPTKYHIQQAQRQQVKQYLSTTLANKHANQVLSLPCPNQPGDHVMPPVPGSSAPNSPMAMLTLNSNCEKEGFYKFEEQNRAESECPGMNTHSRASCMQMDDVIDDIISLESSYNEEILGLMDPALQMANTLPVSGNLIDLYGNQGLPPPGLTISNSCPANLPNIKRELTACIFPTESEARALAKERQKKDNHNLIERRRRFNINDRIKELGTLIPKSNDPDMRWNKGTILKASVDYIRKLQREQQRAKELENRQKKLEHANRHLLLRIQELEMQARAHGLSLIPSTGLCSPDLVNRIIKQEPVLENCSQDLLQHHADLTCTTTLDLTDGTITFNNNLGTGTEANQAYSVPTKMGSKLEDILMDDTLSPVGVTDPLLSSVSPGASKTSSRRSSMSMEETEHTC
# A-375 = assay: proliferation inhibition in MITF-low A375 cells – cell-based, cherry-pick samples, set 2, counter-screen for MITF modulator project, dose response (AID 540335); format: functional; conditions: Homo sapiens
# Vero [4] = assay: cells; format: functional, cell-based; conditions: Chlorocebus sabaeus
# Vero [5] = assay: cells; format: functional; conditions: Chlorocebus sabaeus
# Tumor necrosis factor = Tumor necrosis factor (Homo sapiens, UniProt P01375); assay: analog potency on TNFa NF-kB signaling – cell-based, revised, SAR follow-up (AID 2337); format: functional
# [6] = target: T3, Nucleotide-binding oligomerization domain-containing protein 1 (Homo sapiens, UniProt Q9Y239); assay: blockers of NOD1 pathway activity – revised, SAR follow-up (AID 2333); format: functional
# T3 sequence (Q9Y239 whole entry): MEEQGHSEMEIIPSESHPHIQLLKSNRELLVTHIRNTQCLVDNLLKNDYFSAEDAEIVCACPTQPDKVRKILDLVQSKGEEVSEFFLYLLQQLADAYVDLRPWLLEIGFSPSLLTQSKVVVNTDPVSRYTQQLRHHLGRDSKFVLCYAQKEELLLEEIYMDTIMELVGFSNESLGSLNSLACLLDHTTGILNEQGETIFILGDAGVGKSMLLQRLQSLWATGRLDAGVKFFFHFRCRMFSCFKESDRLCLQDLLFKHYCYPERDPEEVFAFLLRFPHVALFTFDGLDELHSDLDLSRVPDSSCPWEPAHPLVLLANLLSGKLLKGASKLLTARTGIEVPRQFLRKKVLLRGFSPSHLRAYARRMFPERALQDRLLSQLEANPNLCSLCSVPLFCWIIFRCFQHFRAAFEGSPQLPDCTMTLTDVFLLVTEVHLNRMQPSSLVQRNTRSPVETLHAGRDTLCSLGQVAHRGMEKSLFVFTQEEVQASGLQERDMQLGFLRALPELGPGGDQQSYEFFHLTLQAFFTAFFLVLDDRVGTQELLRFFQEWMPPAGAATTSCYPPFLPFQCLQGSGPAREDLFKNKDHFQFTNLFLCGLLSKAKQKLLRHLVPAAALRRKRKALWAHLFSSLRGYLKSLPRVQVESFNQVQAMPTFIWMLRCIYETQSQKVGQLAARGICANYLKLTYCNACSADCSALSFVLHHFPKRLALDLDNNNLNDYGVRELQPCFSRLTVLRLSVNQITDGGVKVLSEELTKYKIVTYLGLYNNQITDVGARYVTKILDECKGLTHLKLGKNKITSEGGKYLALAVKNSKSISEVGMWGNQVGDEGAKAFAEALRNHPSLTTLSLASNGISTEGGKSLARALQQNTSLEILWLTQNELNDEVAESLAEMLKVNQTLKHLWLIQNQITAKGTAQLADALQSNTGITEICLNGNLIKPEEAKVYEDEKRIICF
# [7] = target: Nucleotide-binding oligomerization domain-containing protein 2 (Homo sapiens, UniProt Q9HC29); assay: PubChem AID 2334; format: functional
# HEK293 = assay: cells; conditions: Homo sapiens;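 note: cells exposed to compound for 14 hours overnight before viability readout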
# Troponin, cardiac muscle = Troponin, cardiac muscle (Homo sapiens, UniProt P19429+P45379+P63316); assay: Fluorescence-based biochemical high throughput dose response assay for activators of the calcium sensitivity of cardiac Regulated Thin Filaments (RTF). [Related pubchem assays (depositor defined):AID493008, AID493018, AID504382, AID504383]; format: protein-complex assay
# [8] = target: T4, RNA-binding protein pos-1 (Caenorhabditis elegans, UniProt G5EF15); assay: disruptors of C. elegans POS-1 RNA interaction – biochemical, fluorescence polarization, dose response (AID 1964);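 note: purified POS-1 fused to maltose binding protein made in E. coli; potency of compounds blocking POS-1 binding to fluorescent RNA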
# T4 sequence (G5EF15 whole entry): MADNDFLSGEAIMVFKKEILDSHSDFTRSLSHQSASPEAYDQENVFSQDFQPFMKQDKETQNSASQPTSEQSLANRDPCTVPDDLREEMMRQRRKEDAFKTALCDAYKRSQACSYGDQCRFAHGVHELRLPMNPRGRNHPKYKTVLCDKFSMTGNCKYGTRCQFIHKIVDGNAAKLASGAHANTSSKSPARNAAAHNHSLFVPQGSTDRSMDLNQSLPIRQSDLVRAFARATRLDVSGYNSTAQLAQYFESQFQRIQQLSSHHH
# [9] = target: T5, Zinc finger protein mex-5 (Caenorhabditis elegans, UniProt Q9XUB2); assay: potency of MEX-5 RNA-binding blockers – biochemical, C. elegans, fluorescence polarization, dose response (AID 1960)
# T5 sequence (Q9XUB2 whole entry): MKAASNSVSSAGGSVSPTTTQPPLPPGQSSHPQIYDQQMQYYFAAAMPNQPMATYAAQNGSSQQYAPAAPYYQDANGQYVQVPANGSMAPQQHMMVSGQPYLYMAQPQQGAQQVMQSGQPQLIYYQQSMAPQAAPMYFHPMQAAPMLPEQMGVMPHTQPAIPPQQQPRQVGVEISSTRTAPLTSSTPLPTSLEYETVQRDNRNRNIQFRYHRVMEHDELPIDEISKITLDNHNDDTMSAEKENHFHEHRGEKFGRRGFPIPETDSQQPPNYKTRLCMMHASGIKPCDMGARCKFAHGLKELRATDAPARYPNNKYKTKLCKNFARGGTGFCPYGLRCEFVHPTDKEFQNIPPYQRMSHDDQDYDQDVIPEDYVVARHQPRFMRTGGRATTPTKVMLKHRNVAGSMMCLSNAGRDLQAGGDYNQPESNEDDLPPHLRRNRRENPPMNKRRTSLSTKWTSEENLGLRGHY
# [10] = target: Dual specificity protein kinase CLK1 (Homo sapiens, UniProt P49759); assay: inhibition of human CLK1 activity – biochemical, cherry-picked samples, selectivity assay for Dyrk1A inhibitor project, dose response (AID 588811)
# [11] = Trypanosoma cruzi growth suppression in host cells – NIH3T3 host cells, beta-gal luminescence, confirmation (AID 2044); format: functional, cell-based;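 note: intracellular parasites grown in NIH/3T3 mouse fibroblasts as host cells; luminescent beta-galactosidase reporter signal from transgenic T. cruzi replicating inside host cells; inhibitors lower the luminescence signal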
# [12] = NIH3T3 cell viability loss – ATP luminescence, mouse fibroblasts, counter-screen, dose response (AID 2010); format: functional, cell-based;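 note: cells exposed to compound for about 90 hours before reading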
# [13] = target: Dual specificity tyrosine-phosphorylation-regulated kinase 1A (Rattus norvegicus, UniProt Q63470); format: biochemical, Homo sapiens
# [14] = viability of uninfected HEp-2 cells – cell-based, HTS, cytotoxicity control for RSV inhibitor project, dose response (AID 2410); format: functional; conditions: human respiratory syncytial virus
# [15] = target: T6, Mannose-6-phosphate isomerase (Homo sapiens, UniProt P34949); assay: MPI inhibition at elevated mannose 6-phosphate – biochemical, fluorescence intensity, high mannose 6-phosphate, primary screen (AID 1220)
# T6 sequence (P34949 whole entry): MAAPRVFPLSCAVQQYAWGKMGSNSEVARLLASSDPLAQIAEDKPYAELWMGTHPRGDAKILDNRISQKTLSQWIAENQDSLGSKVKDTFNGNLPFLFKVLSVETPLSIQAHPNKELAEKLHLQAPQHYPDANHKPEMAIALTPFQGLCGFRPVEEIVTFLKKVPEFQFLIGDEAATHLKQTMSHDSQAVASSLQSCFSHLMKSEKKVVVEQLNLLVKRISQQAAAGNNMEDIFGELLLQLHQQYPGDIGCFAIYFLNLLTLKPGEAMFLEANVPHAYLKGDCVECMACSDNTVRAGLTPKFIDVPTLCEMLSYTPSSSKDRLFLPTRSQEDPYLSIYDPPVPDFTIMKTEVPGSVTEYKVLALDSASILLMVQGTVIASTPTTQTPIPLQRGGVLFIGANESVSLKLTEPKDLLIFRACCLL
smiles,measurement,setting,value
Cc1cc2c([nH]c3ccccc32)c2c1OC(C)(C)C=C2 [GRINIMIBINE],EC50,[1],27.7 µM (active)
same,EC50,H4,20.6 µM (active)
same,Absolute IC50 (CHOP),[2],10 µM
same,Absolute IC50 (XBP1),X-box-binding protein 1,10 µM
same,AC50,HeLa,41.3 µM (active)
CCOc1c(Br)cc(CNC2CCCCCCC2)cc1OC,AC50,[3],20.5 µM (active)
same,AC50,A-375,21.9 µM (active)
CC(NC(=O)c1ccc([N+](=O)[O-])o1)C1CC2CCC1C2 (centres undefined),IC50,Vero [4],> 25 µM (active)
same,CC50,Vero [5],19.9 µM (active)
Cc1n[nH]c(NC=C2C(=O)CC(c3ccco3)CC2=O)c1-c1ccc(Cl)cc1 (centres undefined),Absolute IC50 (CHOP),[2],10 µM
same,Absolute IC50 (XBP1),X-box-binding protein 1,10 µM
O=C(NC1CCCc2c1cnn2-c1ccccc1F)c1cc(-c2ccccc2)n[nH]1 (centres undefined),IC50,Tumor necrosis factor,10.7 µM (active)
same,IC50,[6],16.9 µM (active)
same,IC50,[7],> 20 µM (inactive)
same,IC50,HEK293,> 20 µM (inactive)
O=C(NCc1ccc(Cl)cc1)C1CCN(c2cnccn2)CC1,EC50,"Troponin, cardiac muscle",> 71.4 µM (inactive)
O=C(NC1CCCc2c1cnn2-c1ccccc1F)c1ccnn1-c1ccccc1 (centres undefined),IC50,Tumor necrosis factor,> 20 µM (inactive)
same,IC50,[6],> 20 µM (inactive)
same,IC50,[7],> 20 µM (inactive)
same,IC50,HEK293,> 20 µM (inactive)
CN(C)CCN(C)Cc1c2ccccc2c(CN(C)CCN(C)C)c2ccccc12,EC50,[8],12.1 µM (active)
same,EC50,[9],10.2 µM (active)
same,EC50,"Troponin, cardiac muscle",34.3 µM (inactive)
c1cncc(CNc2ccnc(-c3ccc4[nH]ncc4c3)n2)c1,AC50,[10],0.385 µM (active)
O=C(O)COc1ccc(/C=C/c2nc3ccc([N+](=O)[O-])cc3s2)cc1,EC50,[11],> 60 µM (not active)
same,EC50,[12],> 60 µM (not active)
same,AC50,[10],0.4 µM (active)
same,AC50,[13],0.348 µM (active)
Cc1csc(NC(=O)Cc2coc3cc(C)c(C(C)C)cc23)n1,CC50,[14],6.08 µM (active)
same,IC50,Vero [4],9.7 µM (active)
same,CC50,Vero [5],23 µM (active)
c1csc(CCNc2ncnc3ccc(-c4ccc5c(c4)OCO5)cc23)c1,AC50,[10],< 0.00195 µM (active)
COc1ccc(NC(S)=Nc2cccc3cnccc23)cc1,IC50,[15],> 50 µM (not active)
same,AC50,[13],7.84 µM (active)
